≈ marks a conversion by molar mass, not a printed value. Where “and” joins values, the source holds several entries; their conditions need not be identical. Equal values may be shown once.
Experiments:
[1] = Lipophilicity determination by RP-HPLC; format: physicochemical; conditions: RP-HPLC, logarithm of capacity factor k
Description: It is evident from the graphs in Figure 1 that the correlation coefficients of the dependences of log k/log D6.5/log D7.4 have a value of r = 0.999 (n = 32), which means that the investigated compounds behave insignificantly differently in aqueous media with different pH. Moreover, lipophilicity was calculated as log P and Clog P using two prediction programs. […] Therefore, only log P values predicted by ACD/Percepta can be used for correlations with experimental values. These matches are shown in the graphs in Figure 2, and according to the correlation coefficient r~0.940 (n = 32), it can be argued that even the predicted lipophilicity values correlate with the experimentally measured ones. However, the largest variations were observed (no difference for series 1, 2) for compounds substituted with 2-Cl, 2-CF3, 2,5-Cl, 4-F, 4-CF3, and 3,5-F, 3,5-Cl. These are mainly substituents capable of forming hydrogen and other types of non-bonding interactions both with the surrounding environment and within the molecule. Overall, series 1 (3-CF3) is less lipophilic than series 2 (4-CF3), but the differences in the experimental data are insignificant. Unsubstituted derivatives 1a/2a are the least lipophilic compounds, while derivatives 1o/2o (3,5-Cl) and 1p/2p (3,5-CF3) are the most lipophilic compounds.
Experimental determination of lipophilicity values (log k, log D6.5, and log D7.4) was performed under the same conditions and on the same device as described by Strharsky et al..

M. smegmatis ATCC 700084 = assay: In vitro antimycobacterial evaluation (MIC); format: cell-based, Mycobacterium smegmatis; conditions: for MIC: Mycolicibacterium smegmatis, ATCC700084
[2] = system: M. smegmatis and M. marinum; assay: Antimycobacterial activity, summary over both strains; format: cell-based; conditions: average over the named compounds and strains; read-out: average MIC against M. smegmatis and M. marinum
[3] = system: vancomycin-resistant E. faecalis VRE 368 (VRE2); assay: MBC, agar aliquot subculture method; format: cell-based, Enterococcus faecalis
[4] = system: Mycobacterium marinum CAMP 5644; assay: In vitro antimycobacterial evaluation (MIC); format: cell-based
[5] = system: methicillin-resistant S. aureus SA 3202 (MRSA1); assay: MIC, microtitration broth method; format: cell-based; conditions: Staphylococcus aureus; MRSA SA 3202
[6] = system: methicillin-resistant S. aureus SA 3202 (MRSA1); assay: MBC, agar aliquot subculture method; format: cell-based; conditions: Staphylococcus aureus; MRSA SA 3202
[7] = system: human monocytic leukemia cell line THP-1; assay: In vitro cell viability (cytotoxicity screening); format: cell-based; conditions: 24 h, medium with 10% FBS, ± SD, n = 6
Description: The investigated anilides can be divided into three groups. […] Higher concentrations (than 10 or 30 µM) were not possible to evaluate due to precipitation of the tested compounds in water medium. Based on all these observations, it can be concluded that the high antimicrobial activity of 3,5-CF3-substituted compounds is associated with significant cytotoxic effect against eukaryotic cells. On the other hand, the other still effective compounds, especially agents 1j and 1o, have an insignificant toxic effect, which makes them interesting for further study.
Human monocytic leukemia THP-1 cells obtained from the European Collection of Cell Cultures (ECACC, Salisbury, UK) were used for in vitro antiproliferative assays. A recently described procedure was used.

S. aureus/MRSA = assay: Antistaphylococcal activity, summary over strains; format: cell-based, Staphylococcus aureus; conditions: for MIC: Staphylococcus aureus, MRSA, average over the named compounds and strains, read-out: average MIC against S. aureus/MRSA; for antistaphylococcal MICs/MBCs: range over S. aureus and MRSA isolates and over the named compounds
[8] = system: Enterococcus faecalis ATCC 29212; assay: MIC, microtitration broth method; format: cell-based; conditions: ATCC29212, E. faecalis reference strain
[9] = system: methicillin-resistant S. aureus SA 630 (MRSA2); assay: MBC, agar aliquot subculture method; format: cell-based; conditions: Staphylococcus aureus; MRSA SA 630
[10] = system: methicillin-resistant S. aureus 63718 (MRSA3); assay: MIC, microtitration broth method; format: cell-based; conditions: Staphylococcus aureus; MRSA 63718
[11] = system: Staphylococcus aureus ATCC 29213; assay: MBC, agar aliquot subculture method; format: cell-based; conditions: ATCC29213, S. aureus ATCC 29213
[12] = system: vancomycin-resistant E. faecalis VRE 342B (VRE1); assay: MIC, microtitration broth method; format: cell-based, Enterococcus faecalis
[13] = system: methicillin-resistant S. aureus 63718 (MRSA3); assay: MBC, agar aliquot subculture method; format: cell-based; conditions: Staphylococcus aureus; MRSA 63718
[14] = system: vancomycin-resistant E. faecalis VRE 342B (VRE1); assay: MBC, agar aliquot subculture method; format: cell-based, Enterococcus faecalis
E. faecalis/VRE = assay: Anti-enterococcal activity, summary over strains; format: cell-based, Enterococcus faecalis; conditions: for MIC: Enterococcus faecalis, VRE, average over the named compounds and strains, read-out: average MIC against E. faecalis/VRE; for anti-enterococcal MICs/MBCs: range over E. faecalis and VRE isolates and over the named compounds
[15] = system: Staphylococcus aureus ATCC 29213; assay: MIC, microtitration broth method; format: cell-based; conditions: ATCC29213, S. aureus ATCC 29213
[16] = system: vancomycin-resistant E. faecalis VRE 368 (VRE2); assay: MIC, microtitration broth method; format: cell-based, Enterococcus faecalis
[17] = system: Enterococcus faecalis ATCC 29212; assay: MBC, agar aliquot subculture method; format: cell-based; conditions: ATCC29212, E. faecalis reference strain
[18] = system: methicillin-resistant S. aureus SA 630 (MRSA2); assay: MIC, microtitration broth method; format: cell-based; conditions: Staphylococcus aureus; MRSA SA 630
[19] = system: vancomycin-resistant E. faecalis VRE 725B (VRE3); assay: MIC, microtitration broth method; format: cell-based, Enterococcus faecalis
[20] = system: vancomycin-resistant E. faecalis VRE 725B (VRE3); assay: MBC, agar aliquot subculture method; format: cell-based, Enterococcus faecalis
S. aureus ATCC 29213 = assay: MTT assay, inhibition of bacterial respiration; format: cell-based, Staphylococcus aureus
Description: The MTT assay can be used to assess cell growth by measuring respiration. Respiratory activity of bacterial cells (which is finally reflected in their viability) less than 70% after exposure to the MIC values for each tested compound is considered as a positive result of this assay. This low level of cell oxidative metabolism indicates inhibition of cell growth by inhibition of respiration. The lowest multiples of MIC values that achieved more than 70% inhibition of S. aureus ATCC 29213 viability (%) are shown in Table 3.
The percent inhibition of respiration of S. aureus ATCC 29213 was determined through the MTT assay. The assay was performed as described recently. The percent viability is calculated through the comparison of a measured value and that of the uninhibited control: % viability = OD570E/OD570P × 100, where OD570E is the reading from the compound-exposed cells, while OD570P is the reading from the uninhibited cells (positive control). Cytotoxic potential is determined by a percent viability of <70% [46, 47].

Compound	log k [1]	MIC (M. smegmatis ATCC 700084) [µM]	MIC [2] [µM]	MBC [3] [µM]	MIC [5] [µM]	MBC [6] [µM]	IC50 [7] [µM]	MIC (S. aureus/MRSA) [µM]	antistaphylococcal MICs/MBCs (S. aureus/MRSA)	MIC [8] [µM]	MBC [9] [µM]	MIC [10] [µM]	MBC [11] [µM]	MIC [12] [µM]	MBC [13] [µM]	melting point [°C]	MIC [15] [µM]	MIC [18] [µM]	Conc.: lowest multiple of MIC with at least 70% inhibition of respiratory activity (S. aureus ATCC 29213)	Conc.: the same concentration as multiple of MBC (S. aureus ATCC 29213)	further results
O=C(/C=C/c1cccc(C(F)(F)F)c1)Nc1ccc(C(F)(F)F)cc1 [1j, (2E)-3-[3-(Trifluoromethyl)phenyl]-N-[4-(trifluoromethyl)phenyl]prop-2-enamide]	0.9247	11.1 (≈ 3.99 µg/mL)	~4.1 (≈ 1.47 µg/mL)	44.5 (≈ 16 µg/mL)	2.78 (≈ 0.999 µg/mL)	2.78 (≈ 0.999 µg/mL)	> 30	~1.4 (≈ 0.503 µg/mL)	0.15 to 5.57 µM and 0.146 to 5.57 µM	22.3 (≈ 8.01 µg/mL)	1.39 (≈ 0.499 µg/mL)	2.78 (≈ 0.999 µg/mL)	2.78 (≈ 0.999 µg/mL)	22.3 (≈ 8.01 µg/mL)	5.57 (≈ 2 µg/mL)	118 to 120	2.78 (≈ 0.999 µg/mL)	1.39 (≈ 0.499 µg/mL)	0.5× MIC (0.5× MBC)	0.5× MIC (0.5× MBC)	MIC MM ([4]; M. marinum CAMP 5644): 0.348 – µM; MIC ([4]; Mycobacterium marinum, CAMP5644, M. marinum CAMP 5644): 0.29 to 22.2 µM (≈ 0.104 to 7.98 µg/mL); MBC [14]: 22.3 µM (≈ 8.01 µg/mL); MIC (E. faecalis/VRE): ~15 µM (≈ 5.39 µg/mL); anti-enterococcal MICs/MBCs (E. faecalis/VRE): 2.34 to 44.5 µM; MIC [16]: 44.5 µM (≈ 16 µg/mL); MBC [17]: 22.3 µM (≈ 8.01 µg/mL); MIC [19]: 22.3 µM (≈ 8.01 µg/mL); MBC [20]: 22.3 µM (≈ 8.01 µg/mL)
O=C(/C=C/c1cccc(C(F)(F)F)c1)Nc1cc(C(F)(F)F)cc(C(F)(F)F)c1 [1p, (2E)-N-[3,5-bis(Trifluoromethyl)phenyl]-3-[3-(trifluoromethyl)phenyl]prop-2-enamide]	1.3648	9.36 (≈ 4 µg/mL)	~4.1 (≈ 1.75 µg/mL)		2.34 (≈ 1 µg/mL)	2.34 (≈ 1 µg/mL)	6.7 ± 1.1				1.17 (≈ 0.5 µg/mL)	0.585 (≈ 0.25 µg/mL)	1.17 (≈ 0.5 µg/mL)		1.17 (≈ 0.5 µg/mL)	147 to 149	1.17 (≈ 0.5 µg/mL)	1.17 (≈ 0.5 µg/mL)	1× MIC (1× MBC)	1× MIC (1× MBC)	
O=C(/C=C/c1ccc(C(F)(F)F)cc1)Nc1cccc(C(F)(F)F)c1 [2i, (2E)-N-[3-(Trifluoromethyl)phenyl]-3-[4-(trifluoromethyl)phenyl]prop-2-enamide]	0.8867			44.5 (≈ 16 µg/mL)	2.78 (≈ 0.999 µg/mL)	2.78 (≈ 0.999 µg/mL)	> 10	~1.4 (≈ 0.503 µg/mL)	0.15 to 5.57 µM and 0.146 to 5.57 µM	11.1 (≈ 3.99 µg/mL)	1.39 (≈ 0.499 µg/mL)	2.78 (≈ 0.999 µg/mL)	1.39 (≈ 0.499 µg/mL)	11.1 (≈ 3.99 µg/mL)	2.78 (≈ 0.999 µg/mL)	134 to 136	1.39 (≈ 0.499 µg/mL)	1.39 (≈ 0.499 µg/mL)	1× MIC (1× MBC)	1× MIC (1× MBC)	MIC MS (M. smegmatis ATCC 700084): no effect; MBC [14]: 22.3 µM (≈ 8.01 µg/mL); MIC (E. faecalis/VRE): ~15 µM (≈ 5.39 µg/mL); anti-enterococcal MICs/MBCs (E. faecalis/VRE): 2.34 to 44.5 µM; MIC [16]: 11.1 µM (≈ 3.99 µg/mL); MBC [17]: 11.1 µM (≈ 3.99 µg/mL); MIC [19]: 11.1 µM (≈ 3.99 µg/mL); MBC [20]: 11.1 µM (≈ 3.99 µg/mL)

From PMC9737391, “Trifluoromethylcinnamanilide Michael Acceptors for Treatment of Resistant Bacterial Infections” (International Journal of Molecular Sciences, 2022)
